Source: ChEMBL document CHEMBL4834463, “Synthesis and fungicidal activity of novel 2-(2-alkylthio-6-phenylpyrimidin-4-yl)-1H-benzimidazoles” (Bioorg Med Chem Lett, 2021)
Values after ≈ are worked out from the molar mass of the structure shown.

Key:
Sclerotinia sclerotiorum = assay: Antifungal activity against Sclerotinia sclerotiorum assessed as inhibition of mycelia growth incubated for 48 hrs; format: functional, organism-based
Botrytis cinerea = assay: Antifungal activity against Botrytis cinerea assessed as inhibition of mycelia growth incubated for 48 hrs; format: functional, organism-based

Structure (SMILES) | EC50 (Sclerotinia sclerotiorum) [µg/mL] | EC50 (Botrytis cinerea) [µg/mL]
c1ccc(CSc2nc(-c3ccccc3)cc(-c3nc4ccccc4[nH]3)n2)cc1 | 8.95 (≈ 22.7 µM) | 7.02 (≈ 17.8 µM)
Clc1ccc(-c2cc(-c3nc4ccccc4[nH]3)nc(SCc3ccccc3)n2)cc1 | 14 (≈ 32.6 µM) | 0.2 (≈ 0.466 µM)
CSc1nc(-c2ccc(Cl)cc2)cc(-c2nc3ccccc3[nH]2)n1 | 17.3 (≈ 49 µM) | 1.15 (≈ 3.26 µM)
CSc1nc(-c2ccc(F)cc2)cc(-c2nc3ccccc3[nH]2)n1 | 16.6 (≈ 49.5 µM) | 0.95 (≈ 2.82 µM)
CCCCSc1nc(-c2ccccc2)cc(-c2nc3ccccc3[nH]2)n1 | 22.3 (≈ 61.9 µM) | 0.34 (≈ 0.943 µM)
CCCCSc1nc(-c2ccc(Cl)cc2)cc(-c2nc3ccccc3[nH]2)n1 | 20.6 (≈ 52.1 µM) | 10.1 (≈ 25.6 µM)
COC(=O)Nc1nc2ccccc2[nH]1 [CARBENDAZIM] | 13.3 (≈ 69.7 µM) | 0.21 (≈ 1.1 µM)
COc1ccc(-c2cc(-c3nc4ccccc4[nH]3)nc(SC)n2)cc1 | 23.5 (≈ 67.4 µM) | 0.41 (≈ 1.18 µM)
CCCCSc1nc(-c2ccc(OC)cc2)cc(-c2nc3ccccc3[nH]2)n1 | 16.4 (≈ 41.9 µM) | 2.45 (≈ 6.27 µM)
CSc1nc(-c2ccccc2)cc(-c2nc3ccccc3[nH]2)n1 | 45 (≈ 141 µM) | 0.15 (≈ 0.471 µM)
COc1ccc(-c2cc(-c3nc4ccccc4[nH]3)nc(SCc3ccccc3)n2)cc1 | 10.2 (≈ 24 µM) | 0.28 (≈ 0.66 µM)
CCCCSc1nc(-c2ccc(F)cc2)cc(-c2nc3ccccc3[nH]2)n1 | 6.72 (≈ 17.8 µM) | 0.16 (≈ 0.423 µM)
Fc1ccc(-c2cc(-c3nc4ccccc4[nH]3)nc(SCc3ccccc3)n2)cc1 | 4.65 (≈ 11.3 µM) | 0.14 (≈ 0.339 µM)
